Columns and labels:
Assay in all cases: Test C postemergence
blackgrass = assay type: in vivo, Alopecurus myosuroides
In short: (§1)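 Visual control ratings on a 0–100 scale (100 = complete control) made against untreated controls after 13 to 15 days in greenhouse. Compounds applied in surfactant-containing solvent mixture, either preemergence to loam/sand-sown seeds or postemergence to 1- to 4-leaf plants (2–18 cm) in peat medium.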

ryegrass, Italian = assay type: in vivo, Lolium multiflorum; conditions: postemergence
In short: as §1

wheat = assay type: in vivo, Triticum aestivum; conditions: postemergence
In short: as §1

galium = assay type: in vivo, Galium aparine
In short: as §1

corn = assay type: in vivo, Zea mays
In short: as §1

crabgrass, large = assay type: in vivo, Digitaria sanguinalis
In short: as §1

foxtail, giant = assay type: in vivo, Setaria faberii
In short: as §1

johnsongrass = assay type: in vivo, Sorghum halepense
In short: as §1

lambsquarters = assay type: in vivo, Chenopodium album
In short: as §1

pigweed = assay type: in vivo, Amaranthus retroflexus; conditions: postemergence
In short: as §1

ragweed = assay type: in vivo, Ambrosia elation; conditions: postemergence
In short: as §1

soybean = assay type: in vivo, Glycine max; conditions: postemergence
In short: as §1

barnyardgrass = assay type: in vivo, Echinochloa crus-galli
In short: as §1

oat, wild = assay type: in vivo, Avena fatua
In short: as §1

kochia = assay type: in vivo, Kochia scoparia
In short: as §1

velvetleaf = assay type: in vivo, Abutilon theophrasti; conditions: postemergence
In short: as §1

chickweed = assay type: in vivo, Stellaria media
In short: as §1

[1] = Postemergence, 31 g ai/ha, visually evaluated after 13 to 15 days
[2] = postemergence, 62 g ai/ha, scale 0 to 100
[3] = postemergence, 250 g ai/ha, scale 0 to 100 (0 no effect, 100 complete control)
[4] = postemergence, 125 g ai/ha, scale 0 to 100, 0 no effect, 100 complete control
[5] = 250 g ai/ha, scale 0 to 100 (0 no effect, 100 complete control)
[6] = 125 g ai/ha, scale 0 to 100, 0 no effect, 100 complete control

CCc1cc(C(=O)NCC(F)(F)F)nn1Cc1cc(OC(F)F)nn1C [Compound 206]
Plant response rating (scale of 0 to 100 where 0 is no effect and 100 is complete control), Blackgrass (blackgrass; [1]): 0 | Blackgrass plant response rating (blackgrass; [2]): 0 | Plant response rating, Blackgrass (blackgrass; [3]): 5 | Plant response rating, Blackgrass (blackgrass; [4]): 5 | Plant response rating, Ryegrass, Italian (ryegrass, Italian; [5]): 0 | Plant response rating, Ryegrass, Italian (ryegrass, Italian; [6]): 0 | Plant response rating, Wheat (wheat; [5]): 0 | Wheat plant response rating (wheat; scale 0 to 100): 0 | Plant response rating (scale of 0 to 100 where 0 is no effect and 100 is complete control), Galium (galium; [1]): 30 | Galium plant response rating (galium; [2]): 30 | Plant response rating, Galium (galium; [3]): 45 | Plant response rating, Galium (galium; [4]): 60 | Plant response rating (scale of 0 to 100 where 0 is no effect and 100 is complete control), Corn (corn; [1]): 5 | Corn plant response rating (corn; [2]): 5 | Plant response rating, Corn (corn; [3]): 5 | Plant response rating, Corn (corn; [4]): 5 | Plant response rating (scale of 0 to 100 where 0 is no effect and 100 is complete control), Crabgrass, Large (crabgrass, large; [1]): 5 | Crabgrass, Large plant response rating (crabgrass, large; [2]): 5 | Plant response rating, Crabgrass, Large (crabgrass, large; [3]): 5 | Plant response rating, Crabgrass, Large (crabgrass, large; [4]): 5 | Plant response rating (scale of 0 to 100 where 0 is no effect and 100 is complete control), Foxtail, Giant (foxtail, giant; [1]): 15 | Foxtail, Giant plant response rating (foxtail, giant; [2]): 5 | Plant response rating, Foxtail, Giant (foxtail, giant; [3]): 5 | Plant response rating, Foxtail, Giant (foxtail, giant; [4]): 5 | Plant response rating (scale of 0 to 100 where 0 is no effect and 100 is complete control), Johnsongrass (johnsongrass; [1]): 0 | Johnsongrass plant response rating (johnsongrass; [2]): 0 | Plant response rating, Johnsongrass (johnsongrass; [3]): 5 | Plant response rating, Johnsongrass (johnsongrass; [4]): 5 | Plant response rating (scale of 0 to 100 where 0 is no effect and 100 is complete control), Lambsquarters (lambsquarters; [1]): 10 | Lambsquarters plant response rating (lambsquarters; [2]): 10 | Plant response rating, Lambsquarters (lambsquarters; [3]): 30 | Plant response rating, Lambsquarters (lambsquarters; [4]): 15 | Pigweed plant response rating (pigweed; 62 g ai/ha, scale 0 to 100): 25 | Plant response rating, Pigweed (pigweed; [5]): 40 | Plant response rating, Pigweed (pigweed; [6]): 40 | Plant response rating, Ragweed (ragweed; [5]): 20 | Plant response rating, Ragweed (ragweed; [6]): 35 | Plant response rating, Soybean (soybean; [5]): 35 | Soybean plant response rating (soybean; [6]): 45 | Plant response rating (scale of 0 to 100 where 0 is no effect and 100 is complete control), Barnyardgrass (barnyardgrass; [1]): 5 | Barnyardgrass plant response rating (barnyardgrass; [2]): 5 | Plant response rating, Barnyardgrass (barnyardgrass; [3]): 5 | Plant response rating, Barnyardgrass (barnyardgrass; [4]): 5 | Plant response rating (scale of 0 to 100 where 0 is no effect and 100 is complete control), Oat, Wild (oat, wild; [1]): 0 | Oat, Wild plant response rating (oat, wild; [2]): 0 | Plant response rating, Oat, Wild (oat, wild; [3]): 5 | Plant response rating, Oat, Wild (oat, wild; [4]): 5 | Plant response rating (scale of 0 to 100 where 0 is no effect and 100 is complete control), Kochia (kochia; [1]): 30 | Kochia plant response rating (kochia; [2]): 35 | Plant response rating, Kochia (kochia; [3]): 75 | Plant response rating, Kochia (kochia; [4]): 45 | Plant response rating, Velvetleaf (velvetleaf; [5]): 10 | Velvetleaf plant response rating (velvetleaf; scale 0 to 100): 10 | Plant response rating (scale of 0 to 100 where 0 is no effect and 100 is complete control), Chickweed (chickweed; [1]): 5 | Chickweed plant response rating (chickweed; [2]): 5 | Plant response rating, Chickweed (chickweed; [3]): 75 | Plant response rating, Chickweed (chickweed; [4]): 5

Reference: US20150105252A1, “SUBSTITUTED PYRAZOLES AS HERBICIDES” (E I DU PONT DE NEMOURS AND COMPANY, priority 2013, published 2015)
